Patent US20020137929A1, “1 - (3-heterocyclylphenyl) isothiourea, -isourea, -guanidine and -amidine herbicidal agents” (Intellectual Property Department, BASF Aktiengesellschaft, priority 1998, published 2002)

Experiments:
CASOB (Sicklepod) = test: Postemergence herbicidal evaluation; assay type: in vivo, Cassia obtusifolia; conditions: postemergence
In short: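 Each compound, dispersed in an acetone/water mix (50/50) carrying 0.5% TWEEN 20, is nozzle-sprayed at 40 psi on approximately two-week-old seedlings at about 0.0156–0.500 kg/ha. Plants are assessed 4–5 weeks afterward on a 0–9 scale relative to control; duplicate tests are averaged.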

[1] = system: IPOSS (Morningglory Spp.); test: Postemergence herbicidal evaluation; assay type: in vivo, Ipomoea Spp.
Description: In the tests, seedling plants are grown in jiffy flats for about two weeks. The test compounds are dispersed in 50/50 acetone/water mixtures containing 0.5% TWEEN®20, a polyoxyethylene sorbitan monolaurate surfactant of Atlas Chemical Industries, in sufficient quantities to provide the equivalent of about 0.0156 kg to 0.500 kg per hectare of active compound when applied to the plants through a spray nozzle operating at 40 psi for a predetermined time. After spraying, the plants are placed on greenhouse benches and are cared for in accordance with conventional greenhouse procedures. From four to five weeks after treatment, the seedling plants are examined and rated according to the rating system set forth below. Where more than one test is involved for a given compound, the data are averaged.
Plant species employed in these evaluations are reported by header abbreviation, common name and scientific name.
(§1) Results of herbicide evaluation are expressed on a rating scale (0-9). The scale is based upon a visual observation of plant stand, vigor, malformation, size, chlorosis and overall plant appearance as compared with a control.

[2] = system: IPOSS (Morningglory Spp.); test: Preemergence herbicidal evaluation; assay type: in vivo, Ipomoea Spp.; conditions: rated 4-5 weeks after treatment
Source text: as §1
The preemergence herbicidal activity of the test compounds of the present invention is exemplified by the following tests in which the seeds of a variety of monocotyledonous and dicotyledonous plants are separately mixed with potting soil and planted on top of approximately one inch of soil in separate pint cups. After planting, the cups are sprayed with the selected aqueous acetone solution containing test compound in sufficient quantity to provide the equivalent of about 0.0156 to 0.500 kg per hectare of test compound per cup. The treated cups are then placed on greenhouse benches, watered and cared for in accordance with conventional greenhouse procedures. From four to five weeks after treatment, the tests are terminated and each cup is examined and rated according to the rating system provided in Example 37.
The compounds evaluated are reported by compound number given in Example 37.

[3] = system: GLXMAW (Soybean, Williams); test: Preemergence herbicidal evaluation; assay type: in vivo, Glycine max, (L.) Merr. cv Williams; conditions: rated 4-5 weeks after treatment
In short: (§2)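 In this greenhouse assay, monocot and dicot seeds are planted in soil and treated prior to emergence with an aqueous acetone spray (about 0.0156-0.500 kg/ha). Plants are assessed visually against control on a 0-9 scale after 4-5 weeks.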

ORYSAT (Rice, Tebonnet) [4] = test: Preemergence herbicidal evaluation; assay type: in vivo, Oryza sativa, (L.) Tebonnet; conditions: rated 4-5 weeks after treatment
In short: as §2

[5] = system: TRZAWR (Wheat, Winter, cv Riband); test: Preemergence herbicidal evaluation; assay type: in vivo, Triticum aestivum; conditions: rated 4-5 weeks after treatment
In short: as §2

[6] = system: SAGPY (Arrowhead (Pygmaea)); test: Preemergence weed control under flooded paddy conditions; assay type: in vivo, Sagittaria pygmaea; conditions: rated 3-4 weeks after treatment
In short: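 Herbicidal effect is scored visually on a 0-9 scale against an untreated control, three to four weeks after compounds are pipetted into the flood water (1.5 to 3 cm deep) over seeds planted in silt loam at 0.5 cm depth. Rates: about 0.0313 to 0.500 kg/ha.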

MOOVA (Monochoria) = test: Postemergence weed control under flooded paddy conditions; assay type: in vivo, Monochoria vaginalis; conditions: postemergence weeds, 3-4 weeks after treatment
In short: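 Containers holding 3–5 cm weeds and rice at 1.5–2.5 leaves are flooded to 1.5–3 cm above soil. Compound in 50/50 v/v aqueous/acetone is then added directly to the water, about 0.0313–0.500 kg/ha. Plants are kept in the greenhouse and rated 0–9 visually at 3–4 weeks.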

ORYSAT (Rice, Tebonnet) [7] = test: Rice tolerance to post-transplant applications, flooded paddy conditions (Table III); assay type: in vivo, Oryza sativa, (L.) Tebonnet; conditions: in vivo
In short: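 Two ten-day-old Tebonnet seedlings transplanted into flooded silt loam (water 1.5 to 3 cm above soil); three days later the water surface was treated with compound in aqueous/acetone 50/50 at about 0.0313 to 0.500 kg/ha. Visual 0-9 injury rating versus control after three to four weeks in greenhouse.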

ORYSAT (Rice, Tebonnet) [8] = test: Rice tolerance to post-transplant applications, flooded paddy conditions (Table IV); assay type: in vivo, Oryza sativa, (L.) Tebonnet; conditions: in vivo
In short: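 Post-transplant paddy test in greenhouse: a.i. about 0.0313 to 0.500 kg/ha applied into the flood water. Plants are rated 0-9 for overall appearance relative to control three to four weeks on.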

| Structure (SMILES) | CASOB herbicidal rating (CASOB (Sicklepod); rate 0.0157 kg/ha) | CASOB herbicidal rating (CASOB (Sicklepod); rate 0.0313 kg/ha) | CASOB herbicidal rating (CASOB (Sicklepod); rate 0.0625 kg/ha) | CASOB herbicidal rating (CASOB (Sicklepod); rate 0.1250 kg/ha) | IPOSS herbicidal rating ([1]; rate 0.0157 kg/ha) | IPOSS herbicidal rating ([1]; rate 0.0313 kg/ha) | IPOSS herbicidal rating ([1]; rate 0.0625 kg/ha) | IPOSS preemergence herbicidal rating ([2]; rate 0.1250 kg/ha) | IPOSS preemergence herbicidal rating ([2]; rate 0.2500 kg/ha) | ORYSAT preemergence herbicidal rating (ORYSAT (Rice, Tebonnet) [4]; rate 0.1250 kg/ha) | ORYSAT preemergence herbicidal rating (ORYSAT (Rice, Tebonnet) [4]; rate 0.2500 kg/ha) | TRZAWR preemergence herbicidal rating ([5]; rate 0.1250 kg/ha) | TRZAWR preemergence herbicidal rating ([5]; rate 0.2500 kg/ha) | Herbicidal rating SAGPY ([6]; 0.0313 kg/ha) | Herbicidal rating SAGPY ([6]; 0.0625 kg/ha) | Herbicidal rating SAGPY ([6]; 0.1250 kg/ha) | Herbicidal rating SAGPY ([6]; 0.2500 kg/ha) | Herbicidal rating MOOVA (MOOVA (Monochoria); rate 0.0313 kg/ha) | Herbicidal rating MOOVA (MOOVA (Monochoria); rate 0.0625 kg/ha) | Herbicidal rating MOOVA (MOOVA (Monochoria); rate 0.1250 kg/ha) | also measured |
| --- | --- | --- | --- | --- | --- | --- | --- | --- | --- | --- | --- | --- | --- | --- | --- | --- | --- | --- | --- | --- | --- |
| CN1C(=O)CS/C1=N/c1cc(-n2c(=O)cc(C(F)(F)F)n(C)c2=O)c(F)cc1Cl [Compound 7] | 4.0 | 5.0 | 5.0 | 7.0 | 6.0 | 7.0 | 9.0 | 9.0 | 9.0 | 8.5 | 9.0 | 8.5 | 8.5 | 2.0 | 4.0 | 8.0 | 9.0 | 9.0 | 9.0 | 9.0 | IPOSS preemergence herbicidal rating ([2]; rate 0.0157 kg/ha): 9.0; IPOSS preemergence herbicidal rating ([2]; rate 0.0313 kg/ha): 9.0; IPOSS preemergence herbicidal rating ([2]; rate 0.0625 kg/ha): 9.0; GLXMAW preemergence herbicidal rating ([3]; rate 0.0157 kg/ha): 5.0; GLXMAW preemergence herbicidal rating ([3]; rate 0.0313 kg/ha): 6.5; GLXMAW preemergence herbicidal rating ([3]; rate 0.0625 kg/ha): 7.5; GLXMAW preemergence herbicidal rating ([3]; rate 0.1250 kg/ha): 8.0; GLXMAW preemergence herbicidal rating ([3]; rate 0.2500 kg/ha): 8.5; ORYSAT preemergence herbicidal rating (ORYSAT (Rice, Tebonnet) [4]; rate 0.0157 kg/ha): 5.0; ORYSAT preemergence herbicidal rating (ORYSAT (Rice, Tebonnet) [4]; rate 0.0313 kg/ha): 7.5; ORYSAT preemergence herbicidal rating (ORYSAT (Rice, Tebonnet) [4]; rate 0.0625 kg/ha): 8.0; TRZAWR preemergence herbicidal rating ([5]; rate 0.0157 kg/ha): 5.0; TRZAWR preemergence herbicidal rating ([5]; rate 0.0313 kg/ha): 6.5; TRZAWR preemergence herbicidal rating ([5]; rate 0.0625 kg/ha): 7.5; Herbicidal rating MOOVA (MOOVA (Monochoria); rate 0.2500 kg/ha): 9.0 |
| CCC1SC(=Nc2cc(N3C(=O)C4=C(CCCC4)C3=O)c(F)cc2Cl)N(C)C1=O (centres unmarked) [Compound 6, N-{4-chloro-5-[(5-ethyl-3-methyl-4-oxo-2-thiazolidinylidene)amino]-2-fluorophenyl}-1-cyclohexene-1,2-dicarboximide] | 0.0 | 0.0 | 0.0 | 0.0 | 0.0 | 0.0 | 0.0 | 0.0 | 0.0 | 0.0 | 0.0 | 0.0 | 0.0 | 0.0 | 0.0 | 0.0 | 0.0 | 1.0 | 4.0 | 4.0 | CASOB herbicidal rating (CASOB (Sicklepod); rate 0.2500 kg/ha): 2.0; CASOB herbicidal rating (CASOB (Sicklepod); rate 0.5000 kg/ha): 6.0; IPOSS herbicidal rating ([1]; rate 0.1250 kg/ha): 2.0; IPOSS herbicidal rating ([1]; rate 0.2500 kg/ha): 4.0; IPOSS herbicidal rating ([1]; rate 0.5000 kg/ha): 9.0; IPOSS preemergence herbicidal rating ([2]; rate 0.5000 kg/ha): 0.0; ORYSAT preemergence herbicidal rating (ORYSAT (Rice, Tebonnet) [4]; rate 0.5000 kg/ha): 0.0; TRZAWR preemergence herbicidal rating ([5]; rate 0.5000 kg/ha): 0.0; Herbicidal rating SAGPY ([6]; 0.5000 kg/ha): 0.0; Herbicidal rating ORYSAT (rice tolerance) (ORYSAT (Rice, Tebonnet) [7]): 0.0; Herbicidal rating MOOVA (MOOVA (Monochoria); rate 0.2500 kg/ha): 4.5; Herbicidal rating MOOVA (MOOVA (Monochoria); rate 0.5000 kg/ha): 4.5; Herbicidal rating ORYSAT (rice tolerance) (ORYSAT (Rice, Tebonnet) [8]): 0.0 |
